Experimental data as given in patent publication US10081609B2, “Compounds for inducing proliferation and differentiation of cells, and methods of use thereof” (The Broad Institute, Inc., priority 2013, dated 2018).

Key:
[1] = tested on: lfabp:GFP zebrafish embryos; assay: Survival of zebrafish embryos after a fatal dose of APAP; assay type: in vivo; settings: 10 mM APAP concurrently with compound, from 72 hrs post fertilization
Experimental: The effect of FH1 on zebrafish survival following APAP-induced toxicity was examined. lfabp:GFP zebrafish embryos were allowed to develop normally for 72 hrs post fertilization and then exposed to a fatal dose of 10 mM APAP concurrently with FH1 (FIG. 9A).

[2] = tested on: iPS-derived endothelial cells; assay: Differentiation of iPS-derived endothelial cells (nitric oxide); assay type: cell-based
Experimental: Cells were assayed for nitric oxide (NO), a mature marker for endothelial cells. CB=FPH2, M=FH1, E=PH1, while Null and DMSO are control runs with no additive and vehicle only, respectively.

[3] = tested on: transgenic lfabp:GFP zebrafish; assay: Liver development in transgenic lfabp:GFP zebrafish embryos; assay type: in vivo; settings: exposure 24 to 72 hrs post fertilization
Text: The effects of FH1 and PH1 on liver development were examined in transgenic lfabp:GFP zebrafish, in which GFP expression is restricted to the liver. Zebrafish embryos were allowed to develop normally for 24 hrs post fertilization and then exposed to either FH1 or PH1 until 72 hrs post fertilization (FIG. 8A). Livers were visualized by whole-mount fluorescence imaging (FIG. 8B) and lfabp in situ hybridization (FIG. 8C).

iHeps [4] = assay: CYP450 activities of treated iHeps through isoenzyme-specific probes; assay type: cell-based, human
Experimental: Culture media were collected and frozen at −20° C. until analysis. Albumin content was measured through sandwich ELISA assays (MP Biomedicals, Fitzgerald, Bethyl Laboratories) using horseradish peroxidase detection and 3,3′,5,5′-tetramethylbenzidine (TMB, Fitzgerald Industries) as a substrate. Urea concentration was determined colorimetrically using diacetylmonoxime with acid and heat (Stanbio Labs). To quantify CYP450 activity, at 48 hours after small molecule exposure, cultures were incubated with substrates (coumarin from Sigma for CYP2A6, luciferin-IPA from Promega for CYP3A4) for 4 hours at 37° C. Incubation medium was collected and metabolite concentration quantified via luminescence, or fluorescence after hydrolization of potential metabolite conjugates by β-glucuronidase/arylsulfatase (Roche, Ind.).
The ability of compounds of the invention to affect the differentiation and maturation of iHeps was tested. Undifferentiated iPS cells were cultured on Matrigel, supported by primary mouse embryonic fibroblasts. […]
To confirm the staining results, secreted levels of albumin and AFP via ELISA, and CYP450 activities through isoenzyme-specific probes that are either fluorescent or luminescent were measured. […]

[5] = tested on: human primary hepatocytes; assay: High-throughput liver platform, primary screening: secreted albumin by competitive ELISA; assay type: cell-based
Text: In order to evaluate the phenotype of treated cells, a secondary readout was included to quantify hepatocyte functions via competitive ELISA. This biochemical assay measured the level of secreted albumin as a marker for protein synthesis functions of the cultured hepatocytes (FIG. 1A bottom).
FIG. 1B top summarizes the workflow of the screen. Primary screening was done on human primary hepatocytes, preconditioned for seven days by non-parenchymal cells in the screening platform. Upon stabilization in vitro, cultures were treated with the chemical library for 48 hours. All compounds were tested in duplicates, at a single concentration of 15 μM. This single concentration was selected via a pilot screen of ˜2,000 small molecules. All 12,480 small molecules were initially tested on a single donor of cryopreserved hepatocytes (donor a) in order to eliminate noise from donor-to-donor variability. Following compound treatment, media supernatants were collected for functional analyses via ELISA and cultures were fixed in 4% paraformaldehyde for proliferation analyses via imaging.

iHeps [6] = assay: Differentiation of human iPS-derived hepatocytes (iHeps): morphology and immunofluorescent staining; assay type: cell-based
Experimental: (§1) The ability of compounds of the invention to affect the differentiation and maturation of iHeps was tested. Undifferentiated iPS cells were cultured on Matrigel, supported by primary mouse embryonic fibroblasts. Once confluent, iPS cells were transitioned to differentiation media, with sequential addition of growth factors (Activin A, BMP-4, bFGF, HGF, and OSM) to guide differentiation, first into endoderm, then into hepatic progenitor cells and finally into iHeps. Compound treatment started on day 21 post initiation of differentiation and acted over a period of 9 days. FH1 and FPH2 were used to treat iHeps. FH1 doubled albumin secretion during primary screening (FIG. 4A left) in a dose-responsive manner (FIG. 4A right).
To examine the effects of FH1 and FPH2 at the protein level, AFP, albumin and CYP3A4 levels weew visualized via immunofluorescent staining. […] This is in agreement with primary screening results as well as earlier morphological findings. Untreated cultures had islands that double stain for albumin and the fetal marker AFP, with very little presence of the mature marker CYP3A4.

[7] = tested on: lfabp:GFP zebrafish embryos; assay: Therapeutic window after a non-fatal dose of APAP in zebrafish embryos (liver size); assay type: in vivo; settings: 5 mM APAP for 24 hrs before 24 hour treatment
Experimental: The current clinical treatment for APAP toxicity is the administration of NAC, which has a limited window of efficacy. To examine the therapeutic window of FH1 and PH1 efficacy, lfabp:GFP zebrafish embryos were allowed to develop normally for 48 hrs post fertilization, and then exposed to a non-fatal dose of 5 mM APAP for 24 hrs before initiation of treatment with FH1 or PH1 for an additional 24 hour period (FIG. 10A).

iHeps [8] = assay: Gene expression profiles of treated iHeps (Luminex); assay type: cell-based, human
Experimental: Cells were lysed using RLT buffer (Qiagen) or Trizol (Invitrogen) and purified using the Mini-RNeasy kit (Qiagen). Gene expression was determined using Luminex analysis, as previously described. Briefly, total RNA was immobilized on a Qiagen turbo capture 384-well plate, and reverse-transcribed using oligodT priming A biotinylated FlexMap tag sequence unique to each gene of interest and a phosphorylated downstream probe were then added to resulting cDNAs to generate biotinylated FlexMap-tagged amplicons. Universal PCR was then performed for 35 cycles using a biotinylated T7 forward primer and T3 reverse primer in buffer with dNTPs and Taq polymerase. FlexMap microsphere beads conjugated with antitag oligonucleotides were then added and allowed to hybridize. Amplicons were captured by streptavidin-phyoerythrin, and 100 events per bead were analyzed for internal bead color and phyoerythrin reporter fluorescence on a Luminex FlexMap 3D analyzer. Data for replicate loadings, expressed in mean fluorescent intensity of at least 100 beads per sample, were scaled to the human transferrin gene and row-normalized for heat map representation using GeneE open software (Broad Institute).
as §1
Euclidian clustering analyses groups untreated cells with fetal hepatocytes and treated cells with mature hepatocytes (FIG. 4C left). Of particular interest are ABC transporters, CYP3A4 and GSTP1 expression levels. ABC transporters are known to mature after birth. ABCB11, also known as bile-salt export pump (BSEP), increased ˜3 fold and ˜4 fold in expression levels with FPH2 and FH1 treatment, respectively, compared to untreated iHeps. In contrast, GSTP1 expression, whose levels decrease with maturity, remained low upon FPH2 and FH1 treatment compared to untreated iHeps (FIG. 4C right).

[9] = tested on: lfabp:GFP zebrafish embryos; settings: clinical treatment for APAP toxicity; cited from earlier work

CC(=O)Nc1ccc(Cc2ccc(NC(C)=O)cc2)cc1 [FH1, N,N′-(methylenebis(4,1-phenylene))diacetamide]
survival of embryos [1]: 71%
differentiation of iPS-derived endothelial cells (nitric oxide) [2]: induce differentiation
liver size compared to DMSO-treated controls [3]: increased
CYP3A4 activity increase (iHeps [4]): 16 times
albumin secretion during primary screening [5]: doubled
staining of treated islands for albumin, CYP3A4 and AFP (iHeps [6]; immunofluorescent staining): double stained strongly for albumin and CYP3A4, with very minimal presence of AFP
albumin staining (immunofluorescent) (iHeps [6]; treated iHeps): dramatic increases
hepatocyte phenotype of treated iHeps (iHeps [6]; treatment from day 21, 9 days): more mature hepatocyte phenotypes
embryonic liver size / liver mass after APAP compared to controls [7]: mitigated APAP-induced loss of liver mass
ABCB11 (BSEP) expression level increase compared to untreated iHeps (iHeps [8]): ~4 fold
GSTP1 expression compared to untreated iHeps (iHeps [8]): remained low

CC(=O)N[C@@H](CS)C(=O)O [NAC]
typical therapeutic window [9]: ~8 h
